This note sets out measurements from ChEMBL document CHEMBL1777793, “Synthesis of biotinylated muramyl tripeptides with NOD2-stimulating activity” (Bioorg Med Chem Lett, 2011).

The source made the active and inactive calls. The calls are words filed in the database; no cut-off is given here.

The target in this experiment is Nucleotide-binding oligomerization domain-containing protein 2 (Homo sapiens) (UniProt Q9HC29). Briefly: Activation of NOD2 expressed in HEK293 cells assessed as increase in IL8 secretion measured at 0.01 to 0.7 uM after 18 hrs by ELISA. The format is cell-based. In general terms: In an ELISA, binding on a coated surface is turned into a signal by an enzyme label.
Nucleotide-binding oligomerization domain-containing protein 2 (Homo sapiens), sequence (Q9HC29 whole entry, the tested form may be a part): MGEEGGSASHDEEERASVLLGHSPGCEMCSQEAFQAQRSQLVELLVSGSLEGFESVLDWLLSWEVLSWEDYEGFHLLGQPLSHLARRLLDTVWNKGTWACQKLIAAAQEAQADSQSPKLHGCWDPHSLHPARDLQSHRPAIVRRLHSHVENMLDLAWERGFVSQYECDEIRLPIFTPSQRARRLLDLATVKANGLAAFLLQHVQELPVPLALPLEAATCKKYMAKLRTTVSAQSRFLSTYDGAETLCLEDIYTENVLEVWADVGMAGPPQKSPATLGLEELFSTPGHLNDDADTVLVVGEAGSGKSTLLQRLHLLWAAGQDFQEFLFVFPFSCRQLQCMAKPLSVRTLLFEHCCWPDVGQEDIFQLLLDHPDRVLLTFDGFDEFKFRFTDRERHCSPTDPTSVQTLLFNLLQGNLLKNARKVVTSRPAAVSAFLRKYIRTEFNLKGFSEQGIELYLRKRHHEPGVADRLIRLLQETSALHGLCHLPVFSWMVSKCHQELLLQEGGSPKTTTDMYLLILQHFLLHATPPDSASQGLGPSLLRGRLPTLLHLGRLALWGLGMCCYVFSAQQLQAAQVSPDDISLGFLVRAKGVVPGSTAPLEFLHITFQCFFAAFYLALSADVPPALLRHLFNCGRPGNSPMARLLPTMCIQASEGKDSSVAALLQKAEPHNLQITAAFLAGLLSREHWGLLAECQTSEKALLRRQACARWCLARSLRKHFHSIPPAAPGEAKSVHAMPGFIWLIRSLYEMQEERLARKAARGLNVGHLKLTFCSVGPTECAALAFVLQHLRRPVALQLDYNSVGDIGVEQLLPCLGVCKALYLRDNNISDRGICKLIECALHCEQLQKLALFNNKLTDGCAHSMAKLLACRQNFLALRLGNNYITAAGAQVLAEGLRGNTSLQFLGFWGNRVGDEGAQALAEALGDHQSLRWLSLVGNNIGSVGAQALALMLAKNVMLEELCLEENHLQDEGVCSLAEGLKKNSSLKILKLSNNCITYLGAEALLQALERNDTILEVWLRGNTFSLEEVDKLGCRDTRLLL
For the compound `CC(=O)N[C@H]1[C@@H](OP(=O)(O)OP(=O)(O)OC[C@H]2O[C@@H](n3ccc(=O)[nH]c3=O)[C@H](O)[C@@H]2O)O[C@H](CO)[C@@H](O)[C@@H]1O[C@H](C)C(=O)N[C@@H](C)C(=O)N[C@H](CCC(=O)N[C@@H](CCC[C@@H](N)C(=O)O)C(=O)O)C(=O)O`, the result was Active.

On to `CC(=O)N[C@H]1[C@@H](OP(=O)(O)OP(=O)(O)OC[C@H]2O[C@@H](n3ccc(=O)[nH]c3=O)[C@H](O)[C@@H]2O)O[C@H](CO)[C@@H](O)[C@@H]1O[C@H](C)C(=O)N[C@@H](C)C(=O)N[C@H](CCC(=O)N[C@@H](CCC[C@@H](NC(=O)CCCC[C@@H]1SC[C@@H]2NC(=O)N[C@@H]21)C(=O)O)C(=O)O)C(=O)O`, for which the result was Active.

As for `CC(=O)N[C@H]1[C@@H](OP(=O)(O)OP(=O)(O)OC[C@H]2O[C@@H](n3ccc(=O)[nH]c3=O)[C@H](O)[C@@H]2O)O[C@H](CO)[C@@H](O)[C@@H]1O[C@H](C)C(=O)N[C@@H](C)C(=O)N[C@H](CCC(=O)N[C@@H](CCCCNC(=O)CCCC[C@@H]1SC[C@@H]2NC(=O)N[C@@H]21)C(=O)O)C(=O)O`, the result was Active.

For `CC(=O)N[C@H]1C(O)O[C@H](CO)[C@@H](O)[C@@H]1O[C@H](C)C(=O)N[C@@H](C)C(=O)N[C@H](CCC(=O)N[C@@H](CCCCNC(=O)CCCC[C@@H]1SC[C@@H]2NC(=O)N[C@@H]21)C(=O)O)C(=O)O` (some centres not stated), the outcome was Active.

Take `CC(=O)N[C@H]1C(O)O[C@H](CO)[C@@H](O)[C@@H]1O[C@H](C)C(=O)N[C@@H](C)C(=O)N[C@H](CCC(=O)N[C@@H](CCCCN)C(=O)O)C(=O)O` (some centres not stated): the outcome was Active.

In the case of `CC(=O)N[C@H]1C(O)O[C@H](CO)[C@@H](O)[C@@H]1O[C@H](C)C(=O)N[C@@H](C)C(=O)N[C@H](CCC(=O)O)C(N)=O` (some centres not stated), the result was Active.

In the case of `CC(=O)N[C@H]1C(O)O[C@H](CO)[C@@H](O)[C@@H]1O[C@H](C)C(=O)N[C@@H](C)C(=O)N[C@H](CCC(=O)N[C@@H](CCCCNC(=O)CCCCCNC(=O)CCCCCNC(=O)CCCC[C@@H]1SC[C@@H]2NC(=O)N[C@@H]21)C(=O)O)C(=O)O` (some centres not stated), the result was Active.

Regarding `CC(=O)N[C@H]1[C@@H](OP(=O)(O)OP(=O)(O)OC[C@H]2O[C@@H](n3ccc(=O)[nH]c3=O)[C@H](O)[C@@H]2O)O[C@H](CO)[C@@H](O)[C@@H]1O[C@H](C)C(=O)N[C@@H](C)C(=O)N[C@H](CCC(=O)N[C@@H](CCCCNC(=O)CCCCCNC(=O)CCCCCNC(=O)CCCC[C@@H]1SC[C@@H]2NC(=O)N[C@@H]21)C(=O)O)C(=O)O`, the outcome was Active.

Turning to `CC(=O)N[C@H]1C(O)O[C@H](CO)[C@@H](O)[C@@H]1O[C@H](C)C(=O)N[C@@H](C)C(=O)N[C@H](CCC(=O)N[C@@H](CCC[C@@H](NC(=O)CCCC[C@@H]1SC[C@@H]2NC(=O)N[C@@H]21)C(=O)O)C(=O)O)C(=O)O` (some centres not stated), the outcome was inactive.

Take `CC(=O)N[C@H]1C(O)O[C@H](CO)[C@@H](O)[C@@H]1O[C@H](C)C(=O)N[C@@H](C)C(=O)N[C@H](CCC(=O)N[C@@H](CCC[C@@H](N)C(=O)O)C(=O)O)C(=O)O` (some centres not stated): the outcome was inactive.

Take `CC(=O)N[C@H]1C(O)O[C@H](COC(=O)CCCCCNC(=O)CCCCCNC(=O)CCCCCNC(=O)CCCC[C@@H]2SC[C@@H]3NC(=O)N[C@@H]32)[C@@H](O)[C@@H]1O[C@H](C)C(=O)N[C@@H](C)C(=O)N[C@H](CCC(=O)O)C(N)=O` (some centres not stated): the outcome was Active.

As for `CC(=O)N[C@H]1[C@@H](OP(=O)(O)OP(=O)(O)OC[C@H]2O[C@@H](n3ccc(=O)[nH]c3=O)[C@H](O)[C@@H]2O)O[C@H](CO)[C@@H](O)[C@@H]1O[C@H](C)C(=O)N[C@@H](C)C(=O)N[C@H](CCC(=O)N[C@@H](CCCCN)C(=O)O)C(=O)O`, the outcome was Active.
